Where two headings read alike, the source gives them in different places. One block for each compound: values may come before it.
How the values were obtained:
AII receptor = assay: Angiotensin II receptor binding (displacement of 3H-AII); conditions: read-out: Angiotensin II Receptor Binding IC50, rat adrenal cortical microsomes, 2 nM 3H-AII, 1 hour, room temperature
Method: The assay was carried out according to the method described by [Glossmann et al., J. Biol. Chem., 249, 825 (1974)], but with some modifications. The reaction mixture contained rat adrenal cortical microsomes (source of AII receptor) in Tris buffer and 2 nM of ^3 H-AII with or without potential AII antagonist. This mixture was incubated for 1 hour at room temperature and the reaction was subsequently terminated by rapid filtration and rinsing through glass micro-fibre filter. Receptor-bound ^3 H-AII trapped in filter was quantitated by scintillation counting.
(§1) Compounds listed in Table 26 were tested in the same manner as described for Table 25, except that in the test for antihypertensive effects in renal hypertensive rats, the compounds were administered orally at 30 mg/kg and intravenously at 3 mg/kg.

Renal Hypertensive Rats = assay: Antihypertensive effects in renal hypertensive rats; assay type: in vivo; conditions: Rattus norvegicus, Table 25; for minimal effective dose at 10 mg/kg: intravenous, 10 mg/kg or less; for minimal effective dose at 100 mg/kg: oral, 100 mg/kg or less
Method: This procedure increases blood pressure by increasing renin production with consequent elevation of AII levels. Compounds are administered orally at 100 mg/kg and/or intravenously via a cannula in the jugular vein at 10 mg/kg. Arterial blood pressure is continuously measured directly through a carotid artery cannula and recorded using a pressure transducer and a polygraph. Blood pressure levels after treatment are compared to pretreatment levels to determine the antihypertensive effects of the compounds (See Table 25).
as §1

[1] = Table 25, tested as sodium salt

IC50 (AII receptor; Table 25): 4500 nM
SMILES: CCCCc1nc(Cl)c(CC(=O)OC)n1Cc1ccc(NC(=O)[C@@H]2CCCC[C@@H]2NS(=O)(=O)C(F)(F)F)cc1 (relative stereo) [Example 74 (cis compound), methyl 2-butyl-4-chloro-1-[4-(cis-2-(trifluoromethanesulfonamido)cyclohexanecarboxamido)benzyl]imidazole-5-acetate]
minimal effective dose at 10 mg/kg (Renal Hypertensive Rats): < 10 mg/kg | minimal effective dose at 100 mg/kg (Renal Hypertensive Rats): > 100 mg/kg

IC50 (AII receptor; Table 25): 3900 nM
SMILES: CCCCc1nc(Cl)c(CC(=O)OC)n1Cc1ccc(NC(=O)[C@@H]2CCCC[C@H]2NS(=O)(=O)C(F)(F)F)cc1 (relative stereo) [Example 74 (trans compound), Methyl 2-butyl-4-chloro-1-[4-(trans-2-(trifluoromethanesulfonamido)cyclohexanecarboxamido)benzyl]imidazole-5-acetate]
minimal effective dose at 10 mg/kg (Renal Hypertensive Rats): < 10 mg/kg | minimal effective dose at 100 mg/kg (Renal Hypertensive Rats): > 100 mg/kg

IC50 (AII receptor; Table 25): 4400 nM
SMILES: CCCCc1nc(CO)c(Cl)n1Cc1ccc(-c2occc2C(=O)O)cc1 (single isomer, unassigned) [Example 179, 2-n-butyl-1-[4-(3-carboxyfuran-2-yl)benzyl]-5-chloro-4-(hydroxymethyl)imidazole]
minimal effective dose at 10 mg/kg (Renal Hypertensive Rats): < 10 mg/kg | minimal effective dose at 100 mg/kg (Renal Hypertensive Rats): > 100 mg/kg

IC50 (AII receptor; Table 25): 110 nM
SMILES: CCCCc1nc(Cl)c(CC(C)C(=O)N[C@H](C)c2ccccc2)n1Cc1ccc(NC(=O)c2ccccc2C(=O)O)cc1 (single isomer, unassigned) [Example 238, d and l 3-[1-(4-(2-Carboxybenzamido)benzyl-2-butyl-4-chloroimidazol-5-yl]-2-methylpropanoic acid, d-(+)-α-methylbenzylamide]
minimal effective dose at 10 mg/kg (Renal Hypertensive Rats): < 10 mg/kg | minimal effective dose at 100 mg/kg (Renal Hypertensive Rats): > 100 mg/kg

IC50 (AII receptor; Table 25): 120 nM
SMILES: CCCCc1nc(Cl)c(CC(C)C(=O)N[C@H](C)c2ccccc2)n1Cc1ccc(NC(=O)c2ccccc2C(=O)O)cc1 (single isomer, unassigned) [Example 239, d and l 3-[1-(4-(2-Carboxybenzamido)benzyl-2-butyl-4-chloroimidazol-5-yl]-2-methylpropanoic acid, d-(+)-α-methylbenzylamide]

IC50 (AII receptor; [1]): 420 nM
SMILES: CCCCc1nc(CC(=O)OC)c(Cl)n1Cc1ccc(NC(=O)c2ccccc2C(=O)O)cc1 [Example 3, Methyl 2-butyl-1-[4-(2-carboxybenzamido)benzyl]-5-chloroimidazole-4-acetate]
minimal effective dose at 100 mg/kg (Renal Hypertensive Rats; tested as sodium salt): > 100 mg/kg

IC50 (AII receptor; [1]): 190 nM
SMILES: CCCCc1nc(Cl)c(CC(=O)OC)n1Cc1ccc(NC(=O)c2ccccc2-c2ccccc2C(=O)O)cc1 [Example 5]
minimal effective dose at 100 mg/kg (Renal Hypertensive Rats; tested as sodium salt): > 100 mg/kg

IC50 (AII receptor; Table 25): 5700 nM
SMILES: CCCCc1nc(Cl)c(CC(=O)OC)n1Cc1ccc(NC(=O)/C=C\C(=O)O)cc1 [Example 6]

IC50 (AII receptor; Table 25): 420 nM
SMILES: CCCCc1nc(Cl)c(CC(=O)OC)n1Cc1ccc(NC(=O)c2c(C(=O)O)cccc2[N+](=O)[O-])cc1 [Example 7]
minimal effective dose at 10 mg/kg (Renal Hypertensive Rats): < 10 mg/kg | minimal effective dose at 100 mg/kg (Renal Hypertensive Rats): > 100 mg/kg

IC50 (AII receptor; [1]): 5800 nM
SMILES: CCCCc1nc(Cl)c(CC(=O)OC)n1Cc1ccc(NC(=O)c2cc3ccccc3cc2C(=O)O)cc1 [Example 9]

IC50 (AII receptor; [1]): 190 nM
SMILES: CCCCc1nc(Cl)c(COC(C)=O)n1Cc1ccc(NC(=O)c2ccccc2C(=O)O)cc1 [Example 10]

IC50 (AII receptor; Table 25): 18 nM
SMILES: CCCCc1nc(Cl)c(CC(=O)OC)n1Cc1ccc(NC(=O)c2c(Cl)ccc(Cl)c2C(=O)O)cc1 [Example 16]
minimal effective dose at 10 mg/kg (Renal Hypertensive Rats): < 10 mg/kg | minimal effective dose at 100 mg/kg (Renal Hypertensive Rats): > 100 mg/kg

SMILES: CCCCc1nc(Cl)c(COC(C)=O)n1Cc1ccc(C(=O)O)cc1 [Example 20, 5-Acetoxymethyl-2-butyl-1-(4-carboxybenzyl)-4-chloroimidazole]
IC50 (AII receptor; [1]): 5300 nM

IC50 (AII receptor; [1]): 2100 nM
SMILES: CCCCc1nc(Cl)c(CC(=O)OC)n1Cc1ccc(NS(=O)(=O)C(F)(F)F)cc1 [Example 21, Methyl 2-butyl-4-chloro-1-[4-(trifluoromethylsulfonamido)benzyl]imidazole-5-acetate]
minimal effective dose at 10 mg/kg (Renal Hypertensive Rats; tested as sodium salt): < 10 mg/kg | minimal effective dose at 100 mg/kg (Renal Hypertensive Rats; tested as sodium salt): > 100 mg/kg

IC50 (AII receptor; Table 25): 3900 nM
SMILES: CCCCc1nc(Cl)c(CC(=O)O)n1Cc1ccc(NS(=O)(=O)C(F)(F)F)cc1 [Example 25]

IC50 (AII receptor; Table 25): 8000 nM
SMILES: CCCCc1nc(Cl)c(CO)n1Cc1ccc(N2C(=O)c3ccccc3C2=O)cc1 [Example 28, 2-Butyl-4-chloro-5-hydroxymethyl-1-(4-N-phthalimidobenzyl)imidazole]

IC50 (AII receptor; Table 25): 640 nM
SMILES: CCCCc1nc(Cl)c(CC(=O)O)n1Cc1ccc(NC(=O)c2ccccc2NS(=O)(=O)C(F)(F)F)cc1 [Example 31, 2-Butyl-4-chloro-1-[4-((N-trifluoromethanesulfonyl)anthranilamido)benzyl]imidazole-5-acetic acid]

IC50 (AII receptor; [1]): 430 nM
SMILES: CCCCc1nc(Cl)c(CC(=O)O)n1Cc1ccc(NC(=O)c2ccccc2C(=O)O)cc1 [Example 32, 2-Butyl-1-[4-(2-carboxybenzamido)-benzyl]-4-chloroimidazole-5-acetic acid]

IC50 (AII receptor; Table 25): 940 nM
SMILES: CCCCc1nc(Cl)c(CC(=O)OC)n1Cc1ccc(NC(=O)c2cccc(NS(=O)(=O)C(F)(F)F)c2)cc1 [Example 33]

IC50 (AII receptor; Table 25): 1100 nM
SMILES: CCCCc1nc(Cl)c(Cc2nn[nH]n2)n1Cc1ccc(NC(=O)c2ccccc2NS(=O)(=O)C(F)(F)F)cc1 [Example 52]

IC50 (AII receptor; Table 25): 4400 nM
SMILES: COCCc1nc(Cl)c(CO)n1Cc1ccc(NC(=O)c2ccccc2NS(=O)(=O)C(F)(F)F)cc1 [Example 56, 4-Chloro-5-hydroxymethyl-2-(2-methoxyethyl)-1-[4-((N-trifluoromethanesulfonyl)anthranilamido)benzyl]imidazole]

IC50 (AII receptor; Table 25): 1200 nM
SMILES: CCCCCc1nccn1Cc1ccc(NC(=O)c2ccccc2NS(=O)(=O)C(F)(F)F)cc1 [Example 60]

IC50 (AII receptor; Table 25): 5000 nM
SMILES: O=C(Nc1ccc(Cn2ccnc2CC2CCCCC2)cc1)c1ccccc1NS(=O)(=O)C(F)(F)F [Example 61]

IC50 (AII receptor; [1]): 9200 nM
SMILES: CCc1nccn1Cc1ccc(NC(=O)c2ccccc2C(=O)O)cc1 [Example 62]

IC50 (AII receptor; Table 25): 2800 nM
SMILES: O=C(O)c1ccccc1C(=O)Nc1ccc(Cn2ccnc2CC2CCCCC2)cc1 [Example 71]

IC50 (AII receptor; Table 25): 6100 nM
SMILES: CCCCc1nc(Cl)c(COC)n1Cc1ccc(C(=O)N[C@@H](Cc2ccccc2)C(=O)O)cc1 [Example 82]

IC50 (AII receptor; Table 25): 6400 nM
SMILES: CCCCc1nc(Cl)c(COC)n1Cc1ccc(C(=O)N2CCC[C@H]2C(=O)O)cc1 [Example 83]

IC50 (AII receptor; Table 25): 1700 nM
SMILES: CCc1nc(Cl)c(CO)n1Cc1ccc(-c2ccccc2C(=O)O)cc1 [Example 107]

IC50 (AII receptor; Table 25): 20 nM
SMILES: CCCc1nc(Cl)c(CO)n1Cc1ccc(-c2ccccc2-c2nn[nH]n2)cc1 [Example 113]

IC50 (AII receptor; Table 26): 1 nM
SMILES: CCCc1nc(C(F)(F)C(F)(F)F)c(CO)n1Cc1ccc(-c2ccccc2-c2nn[nH]n2)cc1 [Example 124F]

IC50 (AII receptor; Table 26): 11 nM
SMILES: CCC=Cc1nc(Cl)c(CO)n1Cc1ccc(-c2ccccc2-c2nnn[nH]2)cc1 [Example 139]

IC50 (AII receptor; [1]): 2500 nM
SMILES: CCCCc1nc(Cl)c(Cn2ccnc2)n1Cc1ccc(C(=O)c2ccccc2C(=O)O)cc1 [Example 205]

IC50 (AII receptor; [1]): 1400 nM
SMILES: CCCCc1nc(Cl)c(CN=[N+]=[N-])n1Cc1ccc(C(=O)c2ccccc2C(=O)O)cc1 [Example 206]

IC50 (AII receptor; [1]): 2700 nM
SMILES: CCCCc1nc(Cl)c(CNS(=O)(=O)C(F)(F)F)n1Cc1ccc(C(=O)c2ccccc2C(=O)O)cc1 [Example 217, 2-Butyl-1-[4-(2-carboxybenzoyl)benzyl]-4-chloro-5-[(trifluoromethylsulfonamido)methyl]imidazole]

IC50 (AII receptor; Table 25): 530 nM
SMILES: CCCCc1nc(Cl)c(/C=C/C(=O)OCC)n1Cc1ccc(NC(=O)c2ccccc2C(=O)O)cc1 [Example 228, 3-[2-Butyl-4-chloro-1-(4-(2-carboxybenzamido)benzyl)imidazol-5-yl]-propenoic acid ethyl ester, E isomer]

IC50 (AII receptor; Table 25): 76 nM
SMILES: CCCCc1nc(Cl)c(/C=C/COC(C)=O)n1Cc1ccc(NC(=O)c2ccccc2C(=O)O)cc1 [Example 231, 3-[2-Butyl-4-chloro-1-(4-(2-carboxybenzamido)benzyl)imidazol-5-yl]-3-propen-1-ol acetate, E isomer]

IC50 (AII receptor; Table 25): 170 nM
SMILES: CCCCc1nc(Cl)c(/C=C/CO)n1Cc1ccc(NC(=O)c2ccccc2C(=O)O)cc1 [Example 241]

IC50 (AII receptor; Table 25): 200 nM
SMILES: CCCCc1nc(Cl)c(/C=C/C(C)O)n1Cc1ccc(NC(=O)c2ccccc2C(=O)O)cc1 (stereo not shown) [Example 243]

IC50 (AII receptor; Table 25): 110 nM
SMILES: CCCCc1nc(Cl)c(CCCOC(C)=O)n1Cc1ccc(NC(=O)c2ccccc2C(=O)O)cc1 [Example 247]

SMILES: CCCCc1nc(C#N)c(C(N)=O)n1Cc1ccc(-c2ccccc2-c2nnn[nH]2)cc1 [Example 342, 2-n-Butyl-5-carboxamido-4-cyano-1-[(2'-(1H-tetrazol-5-yl)biphenyl-4-yl)methyl]imidazole]
IC50 (AII receptor; Table 26): 37 nM

IC50 (AII receptor; Table 25): 350 nM | IC50 (AII receptor; Table 26): 350 nM
SMILES: CCCCc1nc(Cl)c(CN2CCN(c3ccccc3OC)CC2)n1Cc1ccc(-c2ccccc2-c2nnn[nH]2)cc1 [Example 354, 2-n-Butyl-4-chloro-5-[(4-(2-methoxyphenyl)piperazin-1-yl)methyl]-1-[(2'-(1H-tetrazol-5-yl)biphenyl-4-yl)methyl]imidazole]
